Laboratory results taken from PubChem BioAssay AID248 (DTP/NCI, 2004).
Several values for one entry are separate records, joined by “and”; a condition that tells them apart may be missing. Equal entries are not always repeated. Toxic doses and inconclusive results are not listed. Cut-off read from the data, not from the text of the source: active = T/C of 150% or more; inactive = T/C below 125%.

System: L1210 leukemia ip in BDF1 mice, survival T/C
Experiment: NCI In Vivo Anticancer Drug Screen. Data for tumor model L1210 Leukemia (intraperitoneal) in B6D2F1 (BDF1) mice
Details: endpoint: mean survival time, higher = longer survival
Experimental: The antitumor activity of compounds was measured in mice bearing transplantable tumors. Survival or tumor size were measured and the results are expressed as the measurement made in the treated group (T) divided by the measurement made in the vehicle treated control group (C). The tumor model used in this assay is L1210 Leukemia (intraperitoneal) in B6D2F1 (BDF1) mice

[1] = dose: 100.0 mg/kg/injection, schedule: Q04DX003 (ip), vehicle: saline with Tween-80
[2] = dose: 200.0 mg/kg/injection, schedule: Q04DX003 (ip), vehicle: saline with Tween-80
[3] = dose: 400.0 mg/kg/injection, schedule: Q04DX003 (ip), vehicle: saline with Tween-80
[4] = dose: 100.0 mg/kg/injection, schedule: Q01DX009 (ip), vehicle: Klucel (hydroxypropylcellulose) (HPC)
[5] = dose: 200.0 mg/kg/injection, schedule: Q01DX009 (ip), vehicle: Klucel (hydroxypropylcellulose) (HPC)
[6] = dose: 100.0 mg/kg/injection, schedule: Q01DX001 (ip), vehicle: saline
[7] = dose: 200.0 mg/kg/injection, schedule: Q01DX001 (ip), vehicle: saline
[8] = dose: 400.0 mg/kg/injection, schedule: Q01DX001 (ip), vehicle: saline
[9] = dose: 100.0 mg/kg/injection, schedule: Q04DX003 (ip), vehicle: Klucel (hydroxypropylcellulose) (HPC)
[10] = dose: 200.0 mg/kg/injection, schedule: Q04DX003 (ip), vehicle: Klucel (hydroxypropylcellulose) (HPC)
[11] = dose: 400.0 mg/kg/injection, schedule: Q01DX009 (ip), vehicle: Klucel (hydroxypropylcellulose) (HPC)
[12] = dose: 400.0 mg/kg/injection, schedule: Q04DX003 (ip), vehicle: Klucel (hydroxypropylcellulose) (HPC)
[13] = dose: 100.0 mg/kg/injection, schedule: Q04DX003 (ip), vehicle: saline
[14] = dose: 50.0 mg/kg/injection, schedule: Q01DX009 (ip), vehicle: saline with Tween-80
[15] = dose: 100.0 mg/kg/injection, schedule: Q01DX009 (ip), vehicle: saline with Tween-80
[16] = dose: 200.0 mg/kg/injection, schedule: Q01DX009 (ip), vehicle: saline with Tween-80
[17] = dose: 100.0 mg/kg/injection, schedule: Q04DX002 (ip), vehicle: saline
[18] = dose: 200.0 mg/kg/injection, schedule: Q04DX002 (ip), vehicle: saline
[19] = dose: 400.0 mg/kg/injection, schedule: Q04DX002 (ip), vehicle: saline

Measured: T/C

Cc1ccc(N=Cc2cc(Cl)cc(Cl)c2O)cc1.Cc1ccc(N=Cc2cc(Cl)cc(Cl)c2O)cc1.[Co]
inactive: [1] 104 % of control | [2] 100 % of control | [3] 114 % of control

CCc1ccccc1NC(=S)NC1CCCCC1
inactive: [4] 92 % of control | [5] 101 % of control

CCCCCCCCCCCCC(C)(OO)C(=O)OC (centres undefined)
inactive: dose: 15.0 mg/kg/injection, schedule: Q04DX002 (ip), vehicle: saline with Tween-80 100 % of control | dose: 30.0 mg/kg/injection, schedule: Q04DX002 (ip), vehicle: saline with Tween-80 91 % of control | dose: 160.0 mg/kg/injection, schedule: Q04DX002 (ip), vehicle: saline with Tween-80 95 % of control

OCC(O)C(O)C(O)CC(c1ccc(Cl)cc1)c1ccc(Cl)cc1 (centres undefined)
inactive: dose: 50.0 mg/kg/injection, schedule: Q01DX001 (ip), vehicle: saline 102 % of control | [6] 102 % of control | [7] 106 % of control | [8] 107 % of control

CC(C)c1cccc(O)c(=O)c1
inactive: [1] 95 % of control | [2] 103 % of control

CC(=O)Nc1nn[nH]n1
inactive: dose: 100.0 mg/kg/injection, schedule: Q01DX001 (ip), vehicle: other 93 % of control | [4] 90 % of control | [1] 94 % of control | dose: 200.0 mg/kg/injection, schedule: Q01DX001 (ip), vehicle: other 96 % of control | [5] 91 % of control | [2] 94 % of control | dose: 400.0 mg/kg/injection, schedule: Q01DX001 (ip), vehicle: other 96 % of control | [3] 90 % of control

OCCCCCn1cnc2c(=S)nc[nH]c21
inactive: [4] 101 % of control | [9] 93 % of control | [5] 101 % of control | [10] 98 % of control | [11] 102 % of control | [12] 95 % of control

O=C(OC(CCN1CCCCC1)c1ccccc1)c1ccccc1 (centres undefined)
inactive: [1] 100 % of control

COC(=O)Nc1c(C)cc(C)cc1C
inactive: [13] 94 % of control | dose: 200.0 mg/kg/injection, schedule: Q04DX003 (ip), vehicle: saline 94 % of control | dose: 400.0 mg/kg/injection, schedule: Q04DX003 (ip), vehicle: saline 98 % of control

O=C(N/N=C/c1cccc([N+](=O)[O-])c1)c1ccccc1Cl
inactive: [14] 98 % of control | [15] 107 % of control | [16] 102 % of control

CCN(CC#CCOc1ccc(Br)cc1)c1ccccc1
inactive: [17] 105 % of control | [18] 101 % of control | [19] 99 % of control

COC1CC(OS(=O)(=O)c2ccc(C)cc2)C(OS(=O)(=O)c2ccc(C)cc2)C(C)O1 (centres undefined)
inactive: [6] 100 % of control | [7] 98 % of control | [8] 98 % of control

O=C(NC1CCCCC1)C1COc2ccccc2O1 (centres undefined)
inactive: dose: 100.0 mg/kg/injection, schedule: Q01DX001 (ip), vehicle: Klucel (hydroxypropylcellulose) (HPC) 98 % of control | [4] 95 % of control | dose: 200.0 mg/kg/injection, schedule: Q01DX001 (ip), vehicle: Klucel (hydroxypropylcellulose) (HPC) 108 % of control | [5] 93 % of control | dose: 400.0 mg/kg/injection, schedule: Q01DX001 (ip), vehicle: Klucel (hydroxypropylcellulose) (HPC) 98 % of control | [11] 97 % of control

CC1(C)CCC(C)(C)C(=O)C1=O
inactive: dose: 10.0 mg/kg/injection, schedule: Q01DX009 (ip), vehicle: Klucel (hydroxypropylcellulose) (HPC) 105 % of control | dose: 10.0 mg/kg/injection, schedule: Q04DX003 (ip), vehicle: Klucel (hydroxypropylcellulose) (HPC) 97 % of control | dose: 20.0 mg/kg/injection, schedule: Q01DX001 (ip), vehicle: Klucel (hydroxypropylcellulose) (HPC) 103 % of control | dose: 20.0 mg/kg/injection, schedule: Q01DX009 (ip), vehicle: Klucel (hydroxypropylcellulose) (HPC) 89 % of control | dose: 20.0 mg/kg/injection, schedule: Q04DX003 (ip), vehicle: Klucel (hydroxypropylcellulose) (HPC) 102 % of control | dose: 40.0 mg/kg/injection, schedule: Q01DX001 (ip), vehicle: Klucel (hydroxypropylcellulose) (HPC) 102 % of control | dose: 40.0 mg/kg/injection, schedule: Q01DX009 (ip), vehicle: Klucel (hydroxypropylcellulose) (HPC) 89 % of control | dose: 40.0 mg/kg/injection, schedule: Q04DX003 (ip), vehicle: Klucel (hydroxypropylcellulose) (HPC) 100 % of control

CCCCCCCCCCCC(=O)NC(=S)Nc1ccccc1OCC
inactive: [9] 89 % of control | [10] 90 % of control | [12] 89 % of control

CC1(c2ccccc2)CC1(Br)Br (centres undefined)
inactive: [17] 95 % of control | [18] 95 % of control | [19] 100 % of control

CC1(C)C2CCC1(C)C(C(=O)C(F)(F)F)C2=O.CC1(C)C2CCC1(C)C(C(=O)C(F)(F)F)C2=O.[Mn] (centres undefined)
inactive: dose: 50.0 mg/kg/injection, schedule: Q04DX002 (ip), vehicle: saline with Tween-80 94 % of control | dose: 100.0 mg/kg/injection, schedule: Q04DX002 (ip), vehicle: saline with Tween-80 98 % of control | dose: 200.0 mg/kg/injection, schedule: Q04DX002 (ip), vehicle: saline with Tween-80 98 % of control

c1ccc2c(c1)CNCc1ccccc1-2
inactive: dose: 25.0 mg/kg/injection, schedule: Q01DX009 (ip), vehicle: saline 92 % of control | dose: 50.0 mg/kg/injection, schedule: Q01DX009 (ip), vehicle: saline 105 % of control | dose: 100.0 mg/kg/injection, schedule: Q01DX009 (ip), vehicle: saline 96 % of control | [13] 105 % of control

Cc1cc(O)c(O)c([N+](=O)[O-])c1
inactive: [1] 96 % of control | [2] 92 % of control | [3] 101 % of control

CC(=O)Oc1cc2c(cc1OC(C)=O)C(=O)CCC=C2
inactive: dose: 25.0 mg/kg/injection, schedule: Q04DX003 (ip), vehicle: Klucel (hydroxypropylcellulose) (HPC) 104 % of control | dose: 50.0 mg/kg/injection, schedule: Q04DX003 (ip), vehicle: Klucel (hydroxypropylcellulose) (HPC) 106 % of control | dose: 100.0 mg/kg/injection, schedule: Q01DX009 (ip), vehicle: saline sonified 95 % of control | [9] 98 % of control and 115 % of control | dose: 200.0 mg/kg/injection, schedule: Q01DX009 (ip), vehicle: saline sonified 97 % of control | [10] 102 % of control | dose: 400.0 mg/kg/injection, schedule: Q01DX009 (ip), vehicle: saline sonified 99 % of control | [12] 100 % of control

CCOCc1nc2nc(Cl)c(Cl)nc2[nH]1
inactive: dose: 25.0 mg/kg/injection, schedule: Q04DX003 (ip), vehicle: saline with Tween-80 97 % of control | [14] 106 % of control | dose: 50.0 mg/kg/injection, schedule: Q04DX003 (ip), vehicle: saline with Tween-80 97 % of control | [15] 116 % of control | [1] 97 % of control | [16] 87 % of control | [2] 95 % of control and 97 % of control

COC(=O)CC(=O)c1cc(C(C)(C)C)cc(C(C)(C)C)c1
inactive: dose: 100.0 mg/kg/injection, schedule: Q04DX003 (ip), vehicle: DMSO 96 % of control | dose: 200.0 mg/kg/injection, schedule: Q04DX003 (ip), vehicle: DMSO 103 % of control

C1=Cc2ccccc2C(c2ccccn2)c2ccccc21
inactive: dose: 100.0 mg/kg/injection, schedule: Q04DX003 (ip), vehicle: gum acacia 90 % of control | dose: 200.0 mg/kg/injection, schedule: Q04DX003 (ip), vehicle: gum acacia 97 % of control | dose: 400.0 mg/kg/injection, schedule: Q04DX003 (ip), vehicle: gum acacia 93 % of control

O=P(CCCc1ccccc1)(CCCc1ccccc1)Oc1cccc(C(F)(F)F)c1
inactive: [1] 90 % of control | [2] 92 % of control | [3] 101 % of control
